Results published in publication PMC9615537 (Journal of Pharmaceutical Analysis, 2022).

Assay: Metabolic identification of PEP06 in vitro, all matrices together
Type: in vitro ADME
Conditions: semi-quantitative, Table S3

- Relative abundance of metabolite (peak area vs parent): most abundant metabolite
Sequence: RGDRGDMHSHRDFQPVLH [M6]
